Laboratory results taken from patent US20250136606A1, “MODULATORS OF TRPML, THEIR COMPOSITIONS AND METHODS OF USE” (Caraway Therapeutics, Inc., priority 2021, published 2025).

Assays:
Assay type in all cases: cell-based
Settings in all cases: fluorescent calcium assay
[1] = target: TRPML1 (Homo sapiens, UniProt Q9GZU1); experiment: Fluorescent TRPML1 assay (Fluo4-AM calcium fluorescence in doxycycline-induced HEK-293 Trex cells)
In short: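 hTRPML1 (mutated for cell-surface expression) in HEK-293 Trex, dox 0.5 ug/mL o/n; Fluo4-AM 1 uM ~60 min, then ~60 min de-esterification, dark; modified Ringer's + 10 mM Ca. Cmpds 20 uM–6 nM final, half-log, n=3. Ex480/Em540; % activity vs ctrls; EC50 by nonlinear regression.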

[2] = target: T1, TRPML2 (Homo sapiens, UniProt Q8IZK6); experiment: Fluorescent TRPML2 assay (performed as for TRPML1, substituting the TRPML2 subtype)
T1 construct: expressed in transfected cells
T1 sequence (Q8IZK6 1-566): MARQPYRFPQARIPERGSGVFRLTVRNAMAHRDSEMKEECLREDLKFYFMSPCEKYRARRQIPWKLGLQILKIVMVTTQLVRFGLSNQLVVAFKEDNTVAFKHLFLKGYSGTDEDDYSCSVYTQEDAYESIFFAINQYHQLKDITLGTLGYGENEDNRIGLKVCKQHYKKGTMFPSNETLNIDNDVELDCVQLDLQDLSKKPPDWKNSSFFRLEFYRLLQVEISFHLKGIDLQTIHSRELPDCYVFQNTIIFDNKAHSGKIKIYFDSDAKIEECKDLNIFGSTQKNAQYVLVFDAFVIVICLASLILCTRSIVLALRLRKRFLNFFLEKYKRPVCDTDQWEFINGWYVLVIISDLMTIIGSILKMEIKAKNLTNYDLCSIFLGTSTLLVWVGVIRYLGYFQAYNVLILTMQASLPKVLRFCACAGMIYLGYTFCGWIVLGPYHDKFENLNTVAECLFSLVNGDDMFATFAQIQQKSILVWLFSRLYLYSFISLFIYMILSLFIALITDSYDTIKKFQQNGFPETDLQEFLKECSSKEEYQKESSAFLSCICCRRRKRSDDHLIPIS
In short: (§1)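 Doxycycline-induced (0.5 ug/mL) HEK-293 Trex cells stably expressing surface-directed mutant channel were loaded with 1 micromolar Fluo4-AM, resuspended in Ringer's with 10 mM calcium and added to compound plates. Fluorescence (ex 480, em 540 nm) gave percent activity versus on-plate controls; EC50 by non-linear regression.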

[3] = target: T2, TRPML3 (Homo sapiens, UniProt Q8TDD5); experiment: Fluorescent TRPML3 assay (performed as for TRPML1, substituting the TRPML3 subtype)
T2 construct: expressed in transfected cells
T2 sequence (Q8TDD5 1-553): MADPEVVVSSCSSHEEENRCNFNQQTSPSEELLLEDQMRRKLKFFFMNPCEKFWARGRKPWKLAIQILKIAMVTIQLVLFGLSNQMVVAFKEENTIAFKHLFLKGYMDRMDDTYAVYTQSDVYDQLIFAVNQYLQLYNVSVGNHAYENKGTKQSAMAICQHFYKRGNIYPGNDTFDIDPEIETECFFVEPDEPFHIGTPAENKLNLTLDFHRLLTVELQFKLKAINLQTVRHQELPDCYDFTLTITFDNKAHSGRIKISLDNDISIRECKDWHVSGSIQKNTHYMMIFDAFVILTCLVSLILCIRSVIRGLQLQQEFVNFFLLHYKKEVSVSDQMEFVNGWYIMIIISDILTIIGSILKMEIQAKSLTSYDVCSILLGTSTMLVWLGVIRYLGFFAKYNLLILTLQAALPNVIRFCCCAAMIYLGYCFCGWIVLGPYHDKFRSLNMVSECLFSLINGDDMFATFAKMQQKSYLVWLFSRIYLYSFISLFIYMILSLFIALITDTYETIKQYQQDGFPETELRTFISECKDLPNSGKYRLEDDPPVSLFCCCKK
In short: as §1

TRPML1, sequence (Q9GZU1 whole entry L15A/L16A/L577A/L578A, form open): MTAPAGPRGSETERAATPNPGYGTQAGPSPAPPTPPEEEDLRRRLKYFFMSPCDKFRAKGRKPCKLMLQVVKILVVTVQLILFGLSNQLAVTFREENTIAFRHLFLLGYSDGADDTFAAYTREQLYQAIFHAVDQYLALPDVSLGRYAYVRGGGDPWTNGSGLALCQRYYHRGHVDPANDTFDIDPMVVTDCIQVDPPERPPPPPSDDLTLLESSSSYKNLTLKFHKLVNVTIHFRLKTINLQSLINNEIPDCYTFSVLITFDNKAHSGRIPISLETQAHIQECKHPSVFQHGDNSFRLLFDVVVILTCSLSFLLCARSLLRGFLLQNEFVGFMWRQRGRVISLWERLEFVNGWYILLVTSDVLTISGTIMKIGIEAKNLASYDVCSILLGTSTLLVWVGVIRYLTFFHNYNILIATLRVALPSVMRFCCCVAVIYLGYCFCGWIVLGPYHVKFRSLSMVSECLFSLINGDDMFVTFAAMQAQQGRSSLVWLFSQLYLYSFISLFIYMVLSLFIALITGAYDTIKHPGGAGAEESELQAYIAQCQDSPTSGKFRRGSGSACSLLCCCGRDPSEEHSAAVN

## C[C@H]1CN(C(=O)OC(C)(C)C)CCN1c1ncnc2c1c(-n1cccn1)cn2-c1cccc(Cl)c1 [Compound 322, tert-butyl (S)-4-(7-(3-chlorophenyl)-5-(1H-pyrazol-1-yl)-7H-pyrrolo[2,3-d]pyrimidin-4-yl)-3-methylpiperazine-1-carboxylate]
[1]
  EC50: 100 to 500 nM
[2]
  EC50: 500 to 2000 nM
[3]
  EC50: < 100 nM

## C[C@H]1CN(C(=O)OC(C)(C)C)CCN1c1ncnc2c1c(-n1ccnc1)cn2-c1cccc(Cl)c1 [Compound 323, tert-butyl (S)-4-(7-(3-chlorophenyl)-5-(1H-imidazol-1-yl)-7H-pyrrolo[2,3-d]pyrimidin-4-yl)-3-methylpiperazine-1-carboxylate]
[1]
  EC50: 100 to 500 nM
[2]
  EC50: > 2000 nM
[3]
  EC50: < 100 nM

## C[C@H]1CN(C(=O)OC(C)(C)C)CCN1c1ncnc2c1c(N1CCOCC1)cn2-c1cccc(C#N)c1 [Compound 324, tert-butyl (S)-4-(7-(3-cyanophenyl)-5-morpholino-7H-pyrrolo[2,3-d]pyrimidin-4-yl)-3-methylpiperazine-1-carboxylate]
[1]
  EC50: < 100 nM
[2]
  EC50: 500 to 2000 nM
[3]
  EC50: < 100 nM

## C[C@H]1CN(C(=O)OC(C)(C)C(F)(F)F)CCN1c1ncnc2c1c(C1CC1)cn2C1CCCCC1 [Compound 325, 1,1,1-trifluoro-2-methylpropan-2-yl (S)-4-(7-cyclohexyl-5-cyclopropyl-7H-pyrrolo[2,3-d]pyrimidin-4-yl)-3-methylpiperazine-1-carboxylate]
[1]
  EC50: 100 to 500 nM
[2]
  EC50: 100 to 500 nM
[3]
  EC50: < 100 nM

## C[C@H]1CN(C(=O)OC(C)(C)C)CCN1c1ncnc2c1c(C1CC1)cn2C1CCCCC1 [Compound 326, tert-butyl (S)-4-(7-cyclohexyl-5-cyclopropyl-7H-pyrrolo[2,3-d]pyrimidin-4-yl)-3-methylpiperazine-1-carboxylate]
[1]
  EC50: 100 to 500 nM
[2]
  EC50: > 2000 nM
[3]
  EC50: < 100 nM

## C[C@H]1CN(C(=O)OC(C)(C)C)CCN1c1ncnc2c1c(-c1cncnc1)cn2-c1cccc(Cl)c1 [Compound 327, tert-butyl (S)-4-(7-(3-chlorophenyl)-5-(pyrimidin-5-yl)-7H-pyrrolo[2,3-d]pyrimidin-4-yl)-3-methylpiperazine-1-carboxylate]
[1]
  EC50: 100 to 500 nM
[2]
  EC50: 500 to 2000 nM
[3]
  EC50: < 100 nM

## C[C@H]1CN(C(=O)OC(C)(C)C)CCN1c1ncnc2c1c(-c1cncnc1)cn2-c1cccc(C#N)c1 [Compound 328, tert-butyl (S)-4-(7-(3-cyanophenyl)-5-(pyrimidin-5-yl)-7H-pyrrolo[2,3-d]pyrimidin-4-yl)-3-methylpiperazine-1-carboxylate]
[1]
  EC50: 500 to 2000 nM
[2]
  EC50: > 2000 nM
[3]
  EC50: 100 to 500 nM

## C[C@H]1CN(C(=O)OC(C)(C)C(F)(F)F)CCN1c1ncnc2c1c(-c1cnn(C)c1)cn2-c1cccc(C#N)c1 [Compound 329, 1,1,1-trifluoro-2-methylpropan-2-yl (S)-4-(7-(3-cyanophenyl)-5-(1-methyl-1H-pyrazol-4-yl)-7H-pyrrolo[2,3-d]pyrimidin-4-yl)-3-methylpiperazine-1-carboxylate]
[1]
  EC50: 500 to 2000 nM
[2]
  EC50: > 2000 nM
[3]
  EC50: 100 to 500 nM

## C[C@H]1CN(C(=O)OC(C)(C)C(F)(F)F)CCN1c1ncnc2c1c(-c1cnn(C)c1)cn2-c1cc(C#N)ccn1 [Compound 330, 1,1,1-trifluoro-2-methylpropan-2-yl (S)-4-(7-(4-cyanopyridin-2-yl)-5-(1-methyl-1H-pyrazol-4-yl)-7H-pyrrolo[2,3-d]pyrimidin-4-yl)-3-methylpiperazine-1-carboxylate]
[1]
  EC50: < 100 nM
[2]
  EC50: 100 to 500 nM
[3]
  EC50: < 100 nM

## C[C@H]1CN(C(=O)OC(C)(C)C)CCN1c1ncnc2c1c(N1CCCC1)cn2-c1cccc(OC(F)(F)F)c1 [Compound 331, tert-butyl (S)-3-methyl-4-(5-(pyrrolidin-1-yl)-7-(3-(trifluoromethoxy)phenyl)-7H-pyrrolo[2,3-d]pyrimidin-4-yl)piperazine-1-carboxylate]
[1]
  EC50: < 100 nM
[2]
  EC50: < 100 nM
[3]
  EC50: < 100 nM

## C[C@@H]1CN(c2ncnc3c2c(-n2cccn2)cn3-c2cccc(Cl)c2)CCN1C(=O)OC(C)(C)C [Compound 332, tert-butyl (R)-4-(7-(3-chlorophenyl)-5-(1H-pyrazol-1-yl)-7H-pyrrolo[2,3-d]pyrimidin-4-yl)-2-methylpiperazine-1-carboxylate]
[1]
  EC50: < 100 nM
[2]
  EC50: 500 to 2000 nM
[3]
  EC50: < 100 nM

## C[C@H]1CN(C(=O)OC(C)(C)C)CCN1c1ncnc2c1c(C1CCC1)cn2-c1cc(C#N)ccn1 [Compound 333]
[1]
  EC50: < 100 nM
[2]
  EC50: < 100 nM
[3]
  EC50: < 100 nM

## C[C@H]1CN(C(=O)OC(C)(C)C)CCN1c1ncnc2c1c(N1CCCC1)cn2C1CCCCC1 [Compound 334, tert-butyl (S)-4-(7-cyclohexyl-5-(pyrrolidin-1-yl)-7H-pyrrolo[2,3-d]pyrimidin-4-yl)-3-methylpiperazine-1-carboxylate]
[1]
  EC50: < 100 nM
[2]
  EC50: 100 to 500 nM
[3]
  EC50: < 100 nM

## C[C@H]1CN(C(=O)OC(C)(C)C(F)(F)F)CCN1c1ncnc2c1c(-c1cncnc1)cn2-c1cc(C#N)ccn1 [Compound 335]
[1]
  EC50: < 100 nM
[2]
  EC50: 500 to 2000 nM
[3]
  EC50: < 100 nM

## C[C@H]1CN(C(=O)OC(C)(C)C(F)(F)F)CCN1c1ncnc2c1c(-c1cncnc1)cn2-c1cccc(C#N)c1 [Compound 336, 1,1,1-trifluoro-2-methylpropan-2-yl (S)-4-(7-(3-cyanophenyl)-5-(pyrimidin-5-yl)-7H-pyrrolo[2,3-d]pyrimidin-4-yl)-3-methylpiperazine-1-carboxylate]
[1]
  EC50: 100 to 500 nM
[2]
  EC50: > 2000 nM
[3]
  EC50: < 100 nM

## C[C@H]1CN(C(=O)OC(C)(C)C)CCN1c1ncnc2c1c(CN1CCCC1)cn2-c1cccc(Cl)c1 [Compound 337, tert-butyl-(S)-4-(7-(3-chlorophenyl)-5-(pyrrolidin-1-ylmethyl)-7H-pyrrolo[2,3-d]pyrimidin-4-yl)-3-methylpiperazine-1-carboxylate]
[1]
  EC50: 500 to 2000 nM
[2]
  EC50: > 2000 nM
[3]
  EC50: 100 to 500 nM

## C[C@H]1CN(C(=O)OC(C)(C)C)CCN1c1ncnc2c1c(N1CCCC1)cn2C1CCCC1 [Compound 338, tert-butyl (S)-4-(7-cyclopentyl-5-(pyrrolidin-1-yl)-7H-pyrrolo[2,3-d]pyrimidin-4-yl)-3-methylpiperazine-1-carboxylate]
[1]
  EC50: 100 to 500 nM
[2]
  EC50: > 2000 nM
[3]
  EC50: 500 to 2000 nM

## C[C@H]1CN(C(=O)OC(C)(C)C)CCN1c1ncnc2c1c(C1CC1)cn2C1CCCC1 [Compound 339, tert-butyl (S)-4-(7-cyclopentyl-5-cyclopropyl-7H-pyrrolo[2,3-d]pyrimidin-4-yl)-3-methylpiperazine-1-carboxylate]
[1]
  EC50: 100 to 500 nM
[2]
  EC50: > 2000 nM
[3]
  EC50: 100 to 500 nM

## C[C@H]1CN(C(=O)OC(C)(C)C)CCN1c1ncnc2c1c(C1CC1)cn2C1CCOCC1 [Compound 340, tert-butyl (S)-4-(5-cyclopropyl-7-(tetrahydro-2H-pyran-4-yl)-7H-pyrrolo[2,3-d]pyrimidin-4-yl)-3-methylpiperazine-1-carboxylate]
[1]
  EC50: 500 to 2000 nM
[2]
  EC50: > 2000 nM
[3]
  EC50: 100 to 500 nM

## C[C@@H]1CN(c2ncnc3c2c(N2CCC2)cn3-c2cccc(C#N)c2)CCN1C(=O)OC(C)(C)C [Compound 341, tert-butyl (R)-4-(5-(azetidin-1-yl)-7-(3-cyanophenyl)-7H-pyrrolo[2,3-d]pyrimidin-4-yl)-2-methylpiperazine-1-carboxylate]
[1]
  EC50: < 100 nM
[2]
  EC50: < 100 nM
[3]
  EC50: < 100 nM

## C[C@@H]1CN(c2ncnc3c2c(-n2ccnc2)cn3-c2cccc(Cl)c2)CCN1C(=O)OC(C)(C)C [Compound 342, tert-butyl (R)-4-(7-(3-chlorophenyl)-5-(1H-imidazol-1-yl)-7H-pyrrolo[2,3-d]pyrimidin-4-yl)-2-methylpiperazine-1-carboxylate]
[1]
  EC50: < 100 nM
[2]
  EC50: 500 to 2000 nM
[3]
  EC50: 100 to 500 nM
